Consider 4 compounds from ChEMBL document CHEMBL1201862, “PubChem BioAssay data set” (2004).

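Compound exposure: 48 hours, 5 concentrations, 96-well plates. GI50 marks 50% less growth.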 Activity calls are given as the source filed them. Cut-off read from the data, not from the text of the source: active = GI50 up to about 1.1 µM and inactive = higher.

Some test systems named below: 786-0; A498; ACHN; EKVX; HCC 2998; HCT-15; HT-29; Hs-578T; IGROV-1; MCF7; MDA-MB-231; NCI-H226; NCI/ADR-RES; OVCAR-5; RPMI-8226; SK-MEL-2; SK-MEL-5; SNB-19; UACC-257.
Common to all, as to test: DTP human tumour cell line panel, 48 h

On to `CC(=O)NC1C(O)C(O)C(CO)OC1n1ncc(=O)[nH]c1=O` (stereo unspecified), for which the GI50 with 786-0 is > 100 µM (inactive); in the assay with A498, > 100 µM (inactive); in the assay on ACHN it was > 100 µM (inactive); with EKVX, > 100 µM (inactive); with HCC 2998, > 100 µM (inactive); in the assay with HCT-15 it was above 100 µM. The GI50 in the assay on HT-29, in the assay on Hs-578T, in the assay on IGROV-1, in the assay on MCF7, in the assay on MDA-MB-231 and with NCI-H226 was > 100 µM (inactive) in each case. In addition, the GI50 with NCI/ADR-RES, in the assay on OVCAR-5, in the assay on RPMI-8226, in the assay on SK-MEL-2, with SK-MEL-5 and in the assay with SNB-19 was > 100 µM (inactive) each time. The GI50 in the assay on UACC-257 is > 100 µM (inactive).

For `Cc1ccc([N+](=O)[O-])cc1S(=O)(=O)Nc1ccc(C2=NN(S(=O)(=O)c3cc([N+](=O)[O-])ccc3C)C(c3ccccc3)C2)cc1` (stereo unspecified), the GI50 in the assay on 786-0 is 39.5 µM (inactive); in the assay with A498, 16.5 µM (inactive); with ACHN, 31.8 µM (inactive); with EKVX, 28.8 µM (inactive); with HCC 2998, 22.2 µM (inactive); in the assay on HCT-15 it was 30.9 µM. Besides, the GI50 in the assay on HT-29 is 33.5 µM (inactive); in the assay on Hs-578T, < 0.01 µM (active); in the assay on IGROV-1, 29.3 µM (inactive); in the assay with MCF7, 30.8 µM (inactive); in the assay on MDA-MB-231, 26.1 µM (inactive); with NCI-H226 it was 54.2 µM (inactive). Besides, the GI50 was 25.5 µM (inactive) in the assay on NCI/ADR-RES; 51.2 µM (inactive) in the assay with OVCAR-5; 22.3 µM (inactive) with RPMI-8226; 22.6 µM (inactive) in the assay with SK-MEL-2; 26.3 µM (inactive) with SK-MEL-5; 36.4 µM (inactive) in the assay with SNB-19. The GI50 in the assay on UACC-257 is 24.8 µM (inactive).

For `Cn1c(=O)c2c(nc3n(C)c(=O)c4ccccc4n23)n(C)c1=O`, the GI50 with 786-0 is 29.6 µM (inactive); in the assay with A498, 18.9 µM (inactive); with ACHN, 17.1 µM (inactive); with EKVX it was > 100 µM (inactive); in the assay on HCC 2998, > 100 µM (inactive); in the assay with HCT-15 it was 35.1 µM. For the same compound, the GI50 in the assay with HT-29 was 75.3 µM (inactive); in the assay with Hs-578T, 59.3 µM (inactive); in the assay with IGROV-1, > 95.9 µM (inactive); in the assay on MCF7, 17.9 µM (inactive); with MDA-MB-231, > 100 µM (inactive); with NCI-H226, 30 µM (inactive). In addition, the GI50 with NCI/ADR-RES was 59.4 µM (inactive); in the assay with OVCAR-5 it was > 100 µM (inactive); in the assay with RPMI-8226 it was 20.7 µM (inactive); in the assay on SK-MEL-2 it was > 100 µM (inactive); in the assay on SK-MEL-5, 27.8 µM (inactive); in the assay on SNB-19, 25.8 µM (inactive). Moreover, the GI50 in the assay with UACC-257 is > 100 µM (inactive).

For `CC1=NN(c2cccc(Cl)c2)C2(C1=C/C=C/c1ccccc1)C(Cl)C(=O)N2c1nc2ccccc2s1` (stereo unspecified), the GI50 with 786-0 was 11.7 µM (inactive); in the assay with A498 it was 30.2 µM (inactive); in the assay with ACHN it was 4.76 µM (inactive); in the assay on EKVX, 40.2 µM (inactive); in the assay with HCC 2998 it was 25.1 µM (inactive); in the assay on HCT-15, 29.6 µM. The GI50 with HT-29 is 25.7 µM (inactive); in the assay with Hs-578T, 21 µM (inactive); with IGROV-1 it was 27.5 µM (inactive); in the assay with MCF7 it was 9.14 µM (inactive); in the assay with MDA-MB-231 it was 22.3 µM (inactive); with NCI-H226, 27.4 µM (inactive). Also, the GI50 in the assay on NCI/ADR-RES was 40.5 µM (inactive); with OVCAR-5 it was 34.1 µM (inactive); in the assay with RPMI-8226 it was 4.43 µM (inactive); in the assay with SK-MEL-2 it was 18.7 µM (inactive); with SK-MEL-5, 22.9 µM (inactive); in the assay on SNB-19, 60.8 µM (inactive). In addition, the GI50 in the assay with UACC-257 was 36.7 µM (inactive).
